Laboratory results taken from PMC10802969, “Host-defense piscidin peptides as antibiotic adjuvants against Clostridioides difficile” (PLOS ONE, 2024).
Values joined by “and” are separate entries in the source; they are usually repeats but may differ in a detail not shown here. Equal entries are not always repeated. Where two headings read alike, the source gives them in different places.

How the values were obtained:
C. difficile R20291 [1] = conditions: previously observed / recorded values, ref 76 (vancomycin, fidaxomicin), ref 10 (metronidazole), cited from earlier work
C. difficile cells [2] = experiment: Propidium iodide uptake assay (live cell microscopy); type: cell-based, Clostridioides difficile; conditions: 20 μg/mL PI; 4 μM p1/p1Cu, 8 μM p3/p3Cu; apo 30 min, metalated 10 min; anaerobic 37°C; qualitative microscopy
Description: Samples containing apo-peptides and metalated peptides were incubated for 30 min and 10 min, respectively. After incubation, cells were centrifuged at 704 rfc for 5 minutes and resuspended in 1.5 mL fresh BHIS broth. Negative controls were incubated with PI for 10 or 30 minutes but contained no piscidin. Positive controls were removed from the anaerobic chamber and incubated aerobically for 1 h at room temperature with propidium iodine and 50% ethanol. Within the anaerobic chamber, samples were injected into rose chambers for microscopic imaging as detailed in [53]. The rose chambers were removed from the anaerobic chamber and the outsides were sterilized with 70% ethanol and 10% bleach. […] Samples were imaged with time-lapse differential interference contrast (DIC) microscopy and propidium iodide was monitored at excitation/emission wavelengths of 535/617 nm.

C. difficile = conditions: in vitro, anaerobic; cited from earlier work
Source text: These antibiotics target different cellular components, providing us with a way to identify whether increased efficacy relies on specific mechanistic aspects of the antibiotics and peptides. We tested this by inoculating C. difficile R20291 into media co ...

[3] = system: C. difficile R20291 spores; experiment: Spore viability assay; type: cell-based, Clostridioides difficile; conditions: 16 h, 37°C; for Viable colonies from spores after peptide exposure (spore data): spores in PBS, plated with 0.1% taurocholic acid, individual samples, S6 File; for Viability of dormant C. difficile spores: peptide at or above the concentrations necessary to kill vegetative cells (4/8 μM p1, 8/15 μM p3)
Description: To isolate spores, exponentially growing C. difficile R20291 was inoculated 1:10 into 50 mL of BHIS broth and grown anaerobically at 37°C for 16 h. This culture was removed from anaerobic chamber and ethanol was added to a final concentration of 50%. The sample was rocked aerobically for 6 h. The absence of viable vegetative cells was confirmed by spreading volumes up to 1 mL on BHIS plates and incubating anaerobically for 48 h. […] Peptides were tested at final concentrations corresponding to 1X and 2X their previously observed inhibitory concentrations. All the samples were incubated in the chamber at 37°C for 16 hrs. After incubation, 50 μL aliquots of each sample were plated in triplicate on BHIS plates containing 20 μg/mL erythromycin and 0.1% taurocholic acid agar plates to induce germination. An additional 50 μL aliquot was plated on BHIS containing 20 μg/mL erythromycin to ensure that there was no contamination with vegetative cells. The plates were incubated in the chamber at 37°C for 48 h before the viable colonies were counted.

C. difficile cells [4] = experiment: Transmission electron microscopy of cell envelope damage and lysis; type: cell-based, Clostridioides difficile; conditions: 5 min treatment, TEM
Description: Overnight cultures were prepared by inoculating individual colonies into 3 mL BHIS broth and grown for 14–16 h at 37°C in the anaerobic chamber. The overnight cultures were diluted 1:20 into 4 mL BHIS broth and the cultures were grown until they reached exponential phase (OD600 0.4–0.6). […] After treatment, the samples were transferred to 2 mL Eppendorf tubes and centrifuged for 2 minutes to collect the pellets. The pellets were individually suspended in 1 mL of 1X phosphate-buffered saline solution with 4% paraformaldehyde, prepared as described in [75]. The samples were fixed in the anaerobic chamber for 45 min. After fixation, the eppendorf tubes were removed from the chamber and the exteriors were sterilized with SporGon (Thomas Scientific), 10% bleach, and 70% ethanol (VWR). Samples were incubated on 200 mesh formvar-coated copper grids (Electron Microscopy Sciences, Hatfield, PA) that were glow-discharged. Grids were washed with water, incubated with 2% uranyl acetate, washed with water, dried overnight at room temperature, and imaged using a JEM-2100F TEM (JEOL, Akishima, Japan) at a voltage of 200 kV and using a Gatan OneView camera. The percentage of lysed cells in each condition and the standard error of each condition were compared using the Wilson confidence interval.

C. difficile R20291 [5] = experiment: Growth inhibition assay (16 h overnight growth, culture density at 630 nm); type: cell-based, Clostridioides difficile; conditions: for Concentration of antibiotic necessary to suppress 16-hour growth of C. difficile: >=90% inhibition of overnight growth vs untreated, R20291, anaerobic 37°C, n>=3
Description: Two-fold serial dilutions of BHIS media containing the indicated concentrations of antibiotics were prepared in sterile 96 well plates (ThermoFisher Scientific). […] Inoculated plates were incubated anaerobically at 37°C for 16 h and then removed from the chamber. […] All experiments were performed with a minimum of three samples, and the means and standard deviations were reported. To analyze the effects of the antibiotics, samples containing peptides and antibiotics were compared to samples containing only peptides by two-way analysis of variance using GraphPad Prism 6.

[6] = system: C. difficile R20291 vegetative cells; experiment: Enumeration of colony forming units after overnight exposure; type: cell-based, Clostridioides difficile; conditions: sub-lethal piscidins (2 μM p1/p1-Cu2+ or 4 μM p3/p3-Cu2+) with sub-lethal antibiotic, 16 h exposure
Description: 200 μL samples of BHIS broth containing the indicated concentrations of antibiotics and/or piscidins were inoculated using a 1:10 ratio, in 96 well plates, with exponentially growing C. difficile R20291 cells and incubated for 16 h at 37°C. Samples were spread as duplicates on BHIS agar plates containing 20 μg/mL erythromycin. These plates were incubated anaerobically at 37°C for 48 h before the viable colonies were counted.

[7] = 0.5 μg/mL vancomycin, 4 μM p1-Cu2+, or both
[8] = with 2 μM p1 and 4 μM p3 combined

| Compound | Concentration of antibiotic necessary to suppress 16-hour growth of C. difficile, no peptide (C. difficile R20291 [1]) [µg/mL] | Propidium iodide uptake by live C. difficile cells (C. difficile cells [2]) | Concentration that inhibits growth and kills exponentially growing C. difficile (C. difficile) [µM] | Viable colonies from spores after peptide exposure (spore data) ([3]; 1X MIC (4 μM p1, 8 μM p3)) | Viable colonies from spores after peptide exposure (spore data) ([3]; 2X MIC (8 μM p1, 15 μM p3)) | Viability of dormant C. difficile spores [3] | Concentration of antibiotic necessary to suppress 16-hour growth of C. difficile (C. difficile R20291 [5]; with 2 μM p1) [µg/mL] | Concentration of antibiotic necessary to suppress 16-hour growth of C. difficile (C. difficile R20291 [5]; with 2 μM p1Cu) [µg/mL] | Concentration of antibiotic necessary to suppress 16-hour growth of C. difficile (C. difficile R20291 [5]; [8]) [µg/mL] | Concentration of antibiotic necessary to suppress 16-hour growth of C. difficile (C. difficile R20291 [5]; with 4 μM p3) [µg/mL] | Concentration of antibiotic necessary to suppress 16-hour growth of C. difficile (C. difficile R20291 [5]; with 4 μM p3Cu) [µg/mL] | Number of viable cells after co-treatment [6] | also measured |
| --- | --- | --- | --- | --- | --- | --- | --- | --- | --- | --- | --- | --- | --- |
| O=C(O)c1cn(C2CC2)c2cc(N3CCNCC3)c(F)cc2c1=O [Ciprofloxacin, ciprofloxacin] | > 128 |  |  |  |  |  |  |  |  |  |  |  |  |
| Piscidin 1 [p1] |  | did not visibly increase PI uptake | 4 | 10100 and 12400 and 9560 and 8440 and 7400 and 9040 | 9320 and 11000 and 9200 and 8240 and 10000 and 9120 | do not affect the viability |  |  |  |  |  |  |  |
| Piscidin 3 [p3] |  | did not visibly increase PI uptake | 8 | 8760 and 8840 and 10100 and 7960 and 8080 and 8480 | 8120 and 7200 and 9000 and 8280 and 10200 and 11400 | do not affect the viability |  |  |  |  |  |  |  |
| CN[C@H](CC(C)C)C(=O)N[C@H]1C(=O)N[C@@H](CC(N)=O)C(=O)N[C@H]2C(=O)N[C@H]3C(=O)N[C@H](C(=O)N[C@H](C(=O)O)c4cc(O)cc(O)c4-c4cc3ccc4O)[C@H](O)c3ccc(c(Cl)c3)Oc3cc2cc(c3O[C@@H]2O[C@H](CO)[C@@H](O)[C@H](O)[C@H]2O[C@H]2C[C@](C)(N)[C@H](O)[C@H](C)O2)Oc2ccc(cc2Cl)[C@H]1O [Vancomycin, vancomycin] | 4.000 |  |  |  |  |  | 2.000 | 0.0625 | 0.125 | 0.500 | 0.250 | further reduced the number of viable cells | Concentration of antibiotic necessary to suppress 16-hour growth of C. difficile, no peptide (C. difficile R20291 [1]; listed as vancomycin): 4 µg/mL; Number of cells with cytoplasm / membrane leakage (C. difficile cells [4]; 0.5 μg/mL vancomycin (22 cells observed) or 4 μM p1-Cu2+ (14 cells observed)): 8; Number of lysed cells (severe to complete cell lysis) (C. difficile cells [4]; 0.5 μg/mL vancomycin (of 22 cells), 4 μM p1-Cu2+ (of 14), both (of 19)): 0; Proportion of lysed cells ("percentage") (C. difficile cells [4]; [7]): 0; Wilson estimate of proportion of lysed cells (C. difficile cells [4]; [7]): 0.07692; Concentration of antibiotic necessary to suppress 16-hour growth of C. difficile (C. difficile R20291 [5]; with 2 μM p1, listed as vancomycin): 2 µg/mL; Concentration of antibiotic necessary to suppress 16-hour growth of C. difficile (C. difficile R20291 [5]; with 4 μM p3, listed as vancomycin): 0.5 µg/mL; Concentration of antibiotic necessary to suppress 16-hour growth of C. difficile (C. difficile R20291 [5]; with 4 μM p3Cu, listed as vancomycin): 0.25 µg/mL |
| CCc1c(Cl)c(O)c(Cl)c(O)c1C(=O)O[C@H]1[C@H](O)[C@H](OC)[C@H](OC/C2=C\C=C\C[C@H](O)/C(C)=C/[C@H](CC)[C@@H](O[C@@H]3OC(C)(C)[C@@H](OC(=O)C(C)C)[C@H](O)[C@@H]3O)/C(C)=C/C(C)=C/C[C@@H]([C@@H](C)O)OC2=O)O[C@@H]1C [Fidaxomicin, fidaxomicin] | 0.256 |  |  |  |  |  | 0.0500 | 0.0125 | 0.00625 | 0.050 | >0.100 | further reduced the number of viable cells | Fold improvement of effective antibiotic concentration (C. difficile R20291 [5]; with 2 μM p1-Cu2+ vs no peptide): 20 fold; Concentration of antibiotic necessary to suppress 16-hour growth of C. difficile (C. difficile R20291 [5]; with 2 μM p1, listed as fidaxomicin): 0.05 µg/mL; Fold improvement of effective antibiotic concentration (C. difficile R20291 [5]; with 2 μM p1 and 4 μM p3 combined vs no peptide): 40 fold; Fold improvement of effective antibiotic concentration (C. difficile R20291 [5]; with 2 μM p1 vs no peptide): 5 fold; Concentration of antibiotic necessary to suppress 16-hour growth of C. difficile (C. difficile R20291 [5]; with 4 μM p3Cu, listed as fidaxomicin): > 0.1 µg/mL |
| Cc1ncc([N+](=O)[O-])n1CCO [Metronidazole, metronidazole] | 2.000 |  |  |  |  |  | 0.500 | 1.0000 |  | 0.0625 | 1.000 | further reduced the number of viable cells | Concentration of antibiotic necessary to suppress 16-hour growth of C. difficile, no peptide (C. difficile R20291 [1]; listed as metronidazole): 2 µg/mL; Concentration of antibiotic necessary to suppress 16-hour growth of C. difficile (C. difficile R20291 [5]; with 2 μM p1, listed as metronidazole): 0.5 µg/mL; Concentration of antibiotic necessary to suppress 16-hour growth of C. difficile (C. difficile R20291 [5]; with 2 μM p1Cu, listed as metronidazole): 1 µg/mL; Concentration of antibiotic necessary to suppress 16-hour growth of C. difficile (C. difficile R20291 [5]; with 4 μM p3Cu, listed as metronidazole): 1 µg/mL |
